The conditions of experiment [1]: cited from earlier work.
The target in the next experiment is T1, human NK3 receptor (Homo sapiens, UniProt P29371).
T1 construct: expressed in transfected cells
T1 sequence (P29371 1-465): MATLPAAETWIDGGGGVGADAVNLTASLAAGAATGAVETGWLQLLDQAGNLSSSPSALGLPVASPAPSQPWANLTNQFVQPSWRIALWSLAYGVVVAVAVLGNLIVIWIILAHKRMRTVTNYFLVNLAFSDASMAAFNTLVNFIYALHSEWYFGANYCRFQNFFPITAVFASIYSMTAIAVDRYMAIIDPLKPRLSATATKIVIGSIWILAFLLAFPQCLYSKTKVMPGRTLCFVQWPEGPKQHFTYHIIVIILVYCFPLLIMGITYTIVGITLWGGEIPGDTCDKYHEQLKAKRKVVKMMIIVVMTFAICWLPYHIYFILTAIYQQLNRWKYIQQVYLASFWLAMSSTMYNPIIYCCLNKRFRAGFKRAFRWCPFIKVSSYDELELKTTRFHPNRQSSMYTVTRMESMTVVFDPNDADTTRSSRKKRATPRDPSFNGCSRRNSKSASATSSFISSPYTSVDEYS
Kind of experiment: NK3 receptor binding assay (SPA competition binding, 125I-NKB). As to conditions: read-out: Affinity (Ki/nM). As for the experimental part: Membrane preparation: BHK cells stably expressing the human NK3 receptor were seeded in harvesting plates in Dulbeccos MEM containing GlutaMax (862 mg/l), 1 mM sodium pyruvate, 10% fetal calf serum, 1% Pen/Strep, 1 mg/ml G418 and were grown at 34° C. in a humidified atmosphere containing 10% CO2. To increase receptor expression, 10 μM trichotatin A was added to the media 24 hours before harvest of the cells at a confluency of app 90%. Prior to the harvesting, the cells were washed twice with PBS without Mg^2+ og Ca^2+ and subsequently scrapped of in 10 ml PBS pr harvesting plate. The cells suspension were centrifuged at 1500×G in three minutes before resuspension in 15 mM Tris-HCl pH 7.5 buffer containing 2 mM MgCl2; 0.3 mM EDTA and 1 mM EGTA (buffer A). The cell suspension was homogenised and subsequently centrifuged at 40000×G in 30 minutes. The membrane-pellet was resuspended in buffer A containing 250 mM sucrose, aliquoted and stored at −80° C.
Affinity assay description: The assay was performed as a SPA-based competition-binding assay in a 50 mM Tris pH 7.4 assay buffer containing 120 mM NaCl, 3 mM MnCl2, 40 μg/ml bacitracin, 2 μg/ml Chymostatin, 1 μg/ml Phosphoramidon and 4 μg/ml Leupeptin. […] The assay plate was subsequently under agitation incubated for 90 min at RT.

The values that follow come from US8242134B2, “Isoquinolinone derivatives as NK3 antagonists” (H. Lundbeck A/S, priority 2008, dated 2012).

As for `CC[C@H](NC(=O)c1c(O)c(-c2ccccc2)nc2ccccc12)c1ccccc1` [Talnetant, talnetant], the “effect on cognitive behaviour of schizophrenics in clinical trials” value in experiment [1] (in vivo) is on record as “ameliorate the cognitive behaviour of schizophrenics”. Take `Cc1c(C(=O)N[C@H](c2cccc(F)c2)C2CC2)c2cccc(F)c2c(=O)n1[C@@H]1CCNC1` [Example 5g, 8-Fluoro-3-methyl-1-oxo-2-(R)-1-pyrrolidin-3-yl-1,2-dihydro-isoquinoline-4-carboxylic acid [(S)-cyclopropyl-(3-fluoro-phenyl)-methyl]-amide]: the Ki on human NK3 receptor worked out at 180 nM. `CC(=O)N(C)C1(c2ccccc2)CCN(CCC[C@]2(c3ccc(Cl)c(Cl)c3)CCCN(C(=O)c3ccccc3)C2)CC1` [Osanetant, osanetant]: the “effect in clinical trials versus placebo” value in experiment [1] (in particular on positive symptoms of psychosis) is reported as “superior to placebo”.

On to `Cc1c(C(=O)N[C@H](c2cccc(F)c2)C2CCC2)c2cccc(F)c2c(=O)n1[C@H]1CCOC1` [Example 4r, 8-Fluoro-3-methyl-1-oxo-2-(S)-tetrahydro-furan-3-yl-1,2-dihydro-isoquinoline-4-carboxylic acid [(S)-cyclobutyl-(3-fluoro-phenyl)-methyl]-amide], for which the Ki on human NK3 receptor is 170 nM.
